Bounds are passed on as bounds.

The test system of data set [1] is Oxygen/Glucose Deprived RGCs. Briefly: Protection of oxygen/glucose deprived (OGD) retinal ganglion cells, EC50. Conditions: Rattus norvegicus; compound added from 30 min prior to OGD, during OGD, and 24 and 48 h after OGD. Format: cell-based, Sprague-Dawley rat. As to the method: (§1) Untreated OGD cells were also included as controls.
(§2) The tissue was then disrupted sequentially with a 1 ml pipette, in a solution containing ovomucoid (Boehringer-Mannheim), DNase (Sigma), and bovine serum albumin (BSA; Sigma) to yield a single cell suspension. The cells were then washed in a suspension of ovomucoid/BSA.

Data set [2] has as its system OGD cells (retinal ganglion cells). Briefly: Increase in survival of OGD cells, dose-dependent data. It counts as cell-based, Sprague-Dawley rat. As to the method:
as §1, §2

In general, EC50 refers to the concentration giving half of the maximal effect. A high value points to lower potency in that assay. Regarding `Oc1cccc2nc(Cc3nc4ccccc4[nH]3)[nH]c12` [SNX-926, 2-(benzimidazol-2-ylmethyl)benzimidazol-7-ol], in data set [1], the EC50 turned out to be 40 nM. Further, in data set [2] (Rattus norvegicus, 0.001 μM, read-out: Percent Increase in Survival over OGD Control Cells), the activation at 0.001 µM is under 50%. Further, the activation at 0.01 µM in data set [2] (Rattus norvegicus, 0.01 μM, read-out: Percent Increase in Survival over OGD Control Cells) lay within 50 to 100%. Also, the activation at 0.1 µM in data set [2] (Rattus norvegicus, 0.1 μM, read-out: Percent Increase in Survival over OGD Control Cells) is over 100%. Also, in data set [2] (Rattus norvegicus, 1 μM, read-out: Percent Increase in Survival over OGD Control Cells), the activation at 1 µM is over 100%. Besides, the activation at 10 µM in data set [2] (Rattus norvegicus, 10 μM, read-out: Percent Increase in Survival over OGD Control Cells) fell in the range of 50 to 100%. In data set [2] (rat, retinal ganglion cells), the “TI (therapeutic index)” value was over 250.

The values are drawn from patent US20040072862A1, “Compositions for treating ischemia-related neuronal damage” (priority 1999, published 2004).
